Data on ten compounds can be found in PubChem BioAssay (NCI).

Some test systems named below: NCI-H226 lung; SNB-19 CNS; HCT-116 colon; SF-268 CNS; CCRF-CEM leukemia; OVCAR-8 ovarian; UACC-62 melanoma; HL-60(TB) leukemia.
Common to all, as to assay: NCI tumour cell line growth inhibition, 48 h

Several values for one entry are separate records, joined by “and”; a condition that tells them apart may be missing. Equal entries are not always repeated.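 Cells were grown in 96-well plates and exposed to each compound for 48 hours at five concentrations; endpoints were interpolated linearly between bracketing concentrations, or set to the highest concentration if not reached. GI50 is the concentration that inhibits growth by half. Definition used: TGI = concentration required for complete inhibition of growth.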

`O=c1c2c([nH]c3nccn13)CCC2`: the TGI in the experiment with NCI-H226 lung, in the experiment on SNB-19 CNS, in the experiment with HCT-116 colon, in the experiment on SF-268 CNS, with CCRF-CEM leukemia and with OVCAR-8 ovarian was above 10 µM in each case. Also, the TGI in the experiment on UACC-62 melanoma and with HL-60(TB) leukemia was above 10 µM throughout.
In the case of `O=C1CCc2c(sc3[nH]c(=S)n(-c4cc(C(F)(F)F)cc(C(F)(F)F)c4)c(=O)c23)C1`, the GI50 in the experiment on NCI-H226 lung is 0.801 µM; in the experiment on SNB-19 CNS, 0.384 µM; in the experiment with HCT-116 colon, 0.341 µM; in the experiment with SF-268 CNS, 0.469 µM; with CCRF-CEM leukemia, 0.349 µM; with OVCAR-8 ovarian, 0.457 µM. The GI50 is 0.294 µM in the experiment on UACC-62 melanoma and 0.304 µM with HL-60(TB) leukemia. For the same compound, the TGI is 7.04 µM in the experiment on NCI-H226 lung; above 37 µM in the experiment with SNB-19 CNS; 2.54 µM with HCT-116 colon; above 45.4 µM with SF-268 CNS; 5.81 µM in the experiment on CCRF-CEM leukemia; above 37.8 µM in the experiment on OVCAR-8 ovarian. Moreover, the TGI with UACC-62 melanoma was 1.23 µM; in the experiment on HL-60(TB) leukemia, 1.21 µM.
With `C1=C(c2ccccc2)C(N2CCOCC2)Oc2ccccc21` (centres undefined), the TGI with NCI-H226 lung, with SNB-19 CNS, with HCT-116 colon, with SF-268 CNS, with CCRF-CEM leukemia and in the experiment on OVCAR-8 ovarian was above 100 µM each time. Also, the TGI in the experiment with UACC-62 melanoma and in the experiment on HL-60(TB) leukemia was above 100 µM each time.
Turning to `OCCCCC#Cc1ccccc1C#Cc1ccc(O)cc1`, the GI50 with NCI-H226 lung is 18.3 µM; with SNB-19 CNS, 19.2 µM; in the experiment with HCT-116 colon, 16.6 µM; with SF-268 CNS it was 16 µM; in the experiment on CCRF-CEM leukemia, 7.35 µM; in the experiment on OVCAR-8 ovarian it was 17.1 µM. In addition, the GI50 in the experiment on UACC-62 melanoma is 15.7 µM; in the experiment on HL-60(TB) leukemia, 18.3 µM. For the same compound, the TGI with NCI-H226 lung worked out at 39.1 µM; with SNB-19 CNS, 35.9 µM; in the experiment with HCT-116 colon, 31.8 µM; with SF-268 CNS, 41.7 µM; in the experiment on CCRF-CEM leukemia, 26.1 µM; in the experiment on OVCAR-8 ovarian, 34.9 µM. For the same compound, the figures for the TGI with UACC-62 melanoma and in the experiment on HL-60(TB) leukemia were 29.6 µM and 40.5 µM, respectively.
`C/C(=C\c1ccn(-c2ccccc2N)n1)[C@@H]1C[C@@H]2O[C@]2(C)CCC[C@H](C)[C@H](O)[C@@H](C)C(=O)C(C)(C)[C@@H](O)CC(=O)O1`: the GI50 with NCI-H226 lung was 7.14 µM; in the experiment on SNB-19 CNS it was 0.184 µM; in the experiment with HCT-116 colon it was 0.0191 µM; with SF-268 CNS it was 0.111 µM; with CCRF-CEM leukemia, 0.0343 µM; in the experiment with OVCAR-8 ovarian, 0.0617 µM. The figures for the GI50 with UACC-62 melanoma and with HL-60(TB) leukemia were 0.111 µM and 0.0329 µM, respectively. Moreover, the TGI with NCI-H226 lung, with SNB-19 CNS, with HCT-116 colon, with SF-268 CNS, in the experiment on CCRF-CEM leukemia and in the experiment with OVCAR-8 ovarian was above 50 µM in each case. For the same compound, the figures for the TGI with UACC-62 melanoma and with HL-60(TB) leukemia were above 50 µM and 0.228 µM, respectively.
For `O=C1NC(N/N=C\C(O)C(O)C(O)C(O)CO)=N/C1=C/c1ccccc1` (centres undefined), the GI50 is > 100 µM and 19.5 µM with NCI-H226 lung; 58 µM and 15.3 µM and > 100 µM with SNB-19 CNS; 52.2 µM and 16.4 µM and > 100 µM in the experiment on HCT-116 colon; > 100 µM and 15.2 µM in the experiment on SF-268 CNS; 37.1 µM and 10.2 µM and 37.7 µM in the experiment on CCRF-CEM leukemia; > 100 µM and 22.8 µM in the experiment on OVCAR-8 ovarian. Moreover, the GI50 in the experiment on HL-60(TB) leukemia was 77.2 µM and 41.8 µM and > 100 µM. Besides, the TGI was > 100 µM and 40.8 µM in the experiment with NCI-H226 lung; > 100 µM and 33.3 µM with SNB-19 CNS; > 100 µM and 33.8 µM with HCT-116 colon; > 100 µM and 42.7 µM in the experiment with SF-268 CNS; > 100 µM and 97.7 µM and > 57.7 µM in the experiment on CCRF-CEM leukemia; > 100 µM and 52.5 µM in the experiment on OVCAR-8 ovarian. The TGI in the experiment on UACC-62 melanoma and in the experiment with HL-60(TB) leukemia was above 100 µM in each case.
As to `Cc1ccc(/C=C/c2c(C(=O)/C=C/c3ccccc3)c(C)nc3ccccc23)cc1`, the GI50 in the experiment on NCI-H226 lung was 1.69 µM; with SNB-19 CNS it was 1.66 µM; in the experiment on HCT-116 colon, 0.762 µM; in the experiment on SF-268 CNS, 2.06 µM; in the experiment with CCRF-CEM leukemia it was 1.69 µM; in the experiment with OVCAR-8 ovarian, 1.83 µM. Moreover, the GI50 in the experiment on UACC-62 melanoma was 1.58 µM; with HL-60(TB) leukemia, 2.04 µM. The TGI with NCI-H226 lung is 3.46 µM; with SNB-19 CNS it was 3.08 µM; with HCT-116 colon, 2.2 µM; in the experiment on SF-268 CNS, 5.42 µM; in the experiment on CCRF-CEM leukemia, above 100 µM; in the experiment on OVCAR-8 ovarian, 5.46 µM. Moreover, the TGI in the experiment with UACC-62 melanoma is 3.16 µM; with HL-60(TB) leukemia it was 4.89 µM.
Regarding `O=C(O)C[C@H](O)C[C@H](O)/C=C/c1c(C2CC2)nc2ccccc2c1-c1ccc(F)cc1`, the GI50 in the experiment with NCI-H226 lung is 11.7 µM and 2.22 µM; in the experiment with HCT-116 colon, 5.8 µM and 1.25 µM; in the experiment with SF-268 CNS it was 0.659 µM and 0.381 µM; in the experiment on CCRF-CEM leukemia, 58.4 µM and 25.8 µM; in the experiment with OVCAR-8 ovarian, 7.63 µM and 2.17 µM; in the experiment on UACC-62 melanoma, 2.3 µM and 0.45 µM. In addition, in the experiment with HL-60(TB) leukemia, the GI50 was 4.55 µM and 25.6 µM. For the same compound, the TGI is 51.6 µM and 8.01 µM in the experiment with NCI-H226 lung; above 100 µM in the experiment with SNB-19 CNS; above 100 µM in the experiment on HCT-116 colon; above 100 µM in the experiment with SF-268 CNS; above 100 µM in the experiment on CCRF-CEM leukemia; above 100 µM with OVCAR-8 ovarian. Moreover, the TGI with UACC-62 melanoma and in the experiment on HL-60(TB) leukemia was above 100 µM in each case.
On to `C=CO/N=[N+](\[O-])N(CC)CC`, for which the TGI with NCI-H226 lung, in the experiment with SNB-19 CNS, in the experiment on HCT-116 colon, in the experiment on SF-268 CNS, with CCRF-CEM leukemia and with OVCAR-8 ovarian was above 100 µM throughout. In addition, the TGI with UACC-62 melanoma and with HL-60(TB) leukemia was above 100 µM throughout.
As for `CCC(=O)N1C/C(=C/c2ccc(Cl)cc2)C(=O)/C(=C/c2ccc(Cl)cc2)C1`, the GI50 with NCI-H226 lung was 1.15 µM; in the experiment with SNB-19 CNS, 1.02 µM; with HCT-116 colon it was 0.179 µM; with SF-268 CNS, 1.17 µM; in the experiment on CCRF-CEM leukemia, 0.422 µM; in the experiment on OVCAR-8 ovarian, 0.451 µM. For the same compound, the GI50 is 0.728 µM in the experiment with UACC-62 melanoma and 1.25 µM in the experiment with HL-60(TB) leukemia. Moreover, the TGI in the experiment on NCI-H226 lung is 3.5 µM; in the experiment with SNB-19 CNS it was 2.45 µM; in the experiment on HCT-116 colon it was 0.435 µM; in the experiment with SF-268 CNS it was 3.16 µM; with CCRF-CEM leukemia it was above 22.3 µM; in the experiment with OVCAR-8 ovarian it was 2.12 µM. The figures for the TGI with UACC-62 melanoma and in the experiment on HL-60(TB) leukemia were 1.94 µM and 5.03 µM, respectively.
